Measurements published in patent US20070167513A1, “Crystalline forms of duloxetine free base” (priority 2004, published 2007).
Where a name gives a salt, the structure may show the parent alone. Read-outs that look alike come from different tables or passages of the source.

[1] = before exposure to heat or light
[2] = before exposure to heat or light, Hydrochloride
[3] = stress condition 45° C., Hydrochloride
[4] = stress condition 60° C., Hydrochloride
[5] = stress condition UV, Hydrochloride

SMILES	Description [1]	SMI (single maximum impurity) [2] [%]	Total imp [2] [%]	resistance to degradation (compared with duloxetine hydrochloride prepared by conventional prior art methods)	Description [3]	SMI (single maximum impurity) [3] [%]	Total imp [3] [%]	Description [4]	SMI (single maximum impurity) [4] [%]	Total imp [4] [%]	Description [5]	SMI (single maximum impurity) [5] [%]	Total imp [5] [%]
CNCC[C@H](Oc1cccc2ccccc12)c1cccs1 [DULOXETINE HCI (from free base), Duloxetine Hydrochloride]	White powder	0.05	0.11	more resistant to degradation	White powder	0.07	0.12	White powder	0.07	0.12	Cream	0.06	0.11
CNCC[C@H](Oc1cccc2ccccc12)c1cccs1 [[…] (from prior art)] [Duloxetine Hydrochloride, reference compound]	White powder	0.20	0.48		Cream coloured	0.19	0.65	Light pink	0.19	0.70	Light brown	0.19	0.66
